{
  "source": "patent US11712432B2",
  "about": "“Method of treating cancer with an elevated glycogen content” (University of Kentucky Research Foundation, priority 2018, dated 2023)",
  "key": {"[1]": {"system": "A549 adenoma cells", "experiment": "A549 cells treated with increasing concentrations of DAB", "format": "cell-based", "conditions": "Homo sapiens, FIG. 32A", "text": "(§1) FIGS. 32A-B show graphs illustrating in vitro and in vivo efficacy of the glycogen phosphorylase inhibitor 1,4-dideoxy-1,4-imino-d-arabinitol (DAB) in non-small cell lung cancer."}, "[2]": {"system": "A549 xenografts", "experiment": "A549 xenograft, tumor size", "format": "in vivo, athymic nude mice", "conditions": "20 mg/kg daily intraperitoneal vs PBS, 15 weeks", "experimental": "as §1\nFor in vivo tumor growth, H1299, H2030 and A549 cells were dissociated into single cells, counted and resuspended at 5×10^6 cells per 100 μl of 1:1 media/matrigel (BD). 8-10-week-old female Foxn1^nu/Foxn1^nu(Nude) mice (JAX Laboratories) were injected subcutaneously with 5×10^6 cells on both sides of the flanks. Tumor growth was measured twice a week by caliper in a non-blinded fashion. Tumors were allowed to grow upwards of 1000 mm^3. All mouse experiments were approved by the BCH Animal Care and Use Committee and by the University of Kentucky Institutional Animal Care and Use Committee, both accredited by the Association for Assessment and Accreditation of Laboratory Animal Care and were performed in accordance with relevant institutional and national guidelines and regulations."}, "[3]": {"system": "A673 Ewing's sarcoma cells", "experiment": "Cell viability after guaiacol treatment, A673", "format": "cell-based", "conditions": "Homo sapiens", "experimental": "(§2) (A) A673 Ewing's sarcoma cells were treated with increasing concentrations of guaiacol. […] (E) A673 cells (10^7) were injected subcutaneously in athymic nude mice and when the tumor reached 0.1 cm^3 in size, a daily intraperitoneal injection was initiated of either PBS or guaiacol (20 mg/kg) and tumor size was measured over 15 weeks.\n(§3) Glycogen metabolism has not been evaluated as an anti-cancer target in ES. Guaiacol is a naturally occurring compound that is a GYS inhibitor. […] Cell viability after treatment of guaiacol was assessed at various concentrations for 48 hrs in three different ES cell lines (TC32, A673 and HS822T)."}, "[4]": {"system": "TC32", "experiment": "Cell viability after guaiacol treatment, TC32", "format": "cell-based", "conditions": "Homo sapiens, TC-32; TC32, 48 hrs; read-out: IC50 (50% cell viability)", "experimental": "as §3, with “Guaiacol as a therapeutic agent to target ES in vitro and in vivo. Glycogen” for “Glycogen”, “HS822T). Guaiacol IC50 (50% cell viability) for all three cell lines is ˜20 μM which corresponds to a 3-fold reduction in total glycogen (A673 is shown in FIGS. 31A-C).” for “HS822T).”"}, "[5]": {"system": "HS822T", "experiment": "Cell viability after guaiacol treatment, HS822T", "format": "cell-based", "conditions": "48 hrs, read-out: IC50 (50% cell viability)", "experimental": "as §3, with “Guaiacol as a therapeutic agent to target ES in vitro and in vivo. Glycogen” for “Glycogen”, “HS822T). Guaiacol IC50 (50% cell viability) for all three cell lines is ˜20 μM which corresponds to a 3-fold reduction in total glycogen (A673 is shown in FIGS. 31A-C).” for “HS822T).”"}, "[6]": {"system": "A673", "experiment": "Total glycogen in guaiacol treated ES cell lines", "format": "cell-based", "conditions": "at ~20 μM (IC50), A673 shown", "experimental": "Cells were washed twice in PBS and then lysed in 20 mM NaAcetate pH 5.3, 150 mM NaCl, 10% (v/v) glycerol, 1% (v/v) NP-40. Lysates were centrifuged at 10,000×g at 4° C. for ten minutes. Cleared lysates or purified glycogen were dissolved in ddH2O, followed by acid hydrolysis with 2N HCL for 3 h at 98° C. The reaction was quenched with 2N NaOH for subsequent experiments. Glycogen-derived glucose molecules were measured by either biochemical assay or gas chromatography-mass spectrometry (GC-MS). For the biochemical assay, a portion of the digested lysate was incubated for half an hour at room temperature with 100 U L^−1 of both hexokinase and glucose-6-phosphate dehydrogenase (Sigma) in 50 mM Tris-HCl pH 7.5, 5 mM MgCl2, 0.5 mM ATP, 0.5 mM NAD^+. The absorbance was measured at 340 nm using glucose standards to determine glycogen concentration in lysates; undigested lysates were used for background subtraction. […]\nGuaiacol as a therapeutic agent to target ES in vitro and in vivo. Glycogen metabolism has not been evaluated as an anti-cancer target in ES. […] Cell viability after treatment of guaiacol was assessed at various concentrations for 48 hrs in three different ES cell lines (TC32, A673 and HS822T). […]"}, "[7]": {"system": "A673 xenograft tumors", "experiment": "Normalized glycogen levels in treated xenograft tumors", "format": "in vivo, athymic nude mice", "conditions": "FIG. 31C", "experimental": "as §2, with “FIGS. 31A-E show graphs illustrating in vitro and in vivo efficacy of the glycogen synthase inhibitor guaiacol as an anti-ES agent. (A)” for “(A)”, “guaiacol. (B) The IC50 for guaiacol is ˜20 μm in A673 cells.” for “guaiacol.”\n(§4) The efficacy of guaiacol was further tested in the xenograft model of ES. A673 cells (10^6) were injected subcutaneously in athymic nude mice and when the tumor reached 0.1 cm^3 in size daily IP injection of either PBS or guaiacol (20 mg/kg) was initiated and tumor size was measured over 15 weeks."}, "[8]": {"system": "AMPK", "experiment": "Metformin induced AMPK activation (p-ACC) in guaiacol treated cells", "format": "cell-based", "conditions": "guaiacol treated cells plus metformin"}, "[9]": {"system": "A673 xenograft", "experiment": "A673 xenograft model of ES, tumor size", "format": "in vivo, athymic nude mice", "conditions": "20 mg/kg daily intraperitoneal vs PBS, 15 weeks", "experimental": "as §2, with “FIGS. 31A-E show graphs illustrating in vitro and in vivo efficacy of the glycogen synthase inhibitor guaiacol as an anti-ES agent. (A)” for “(A)”, “guaiacol. (B) The IC50 for guaiacol is ˜20 μm in A673 cells.” for “guaiacol.”\nas §4"}, "[10]": {"experiment": "Tolerability in xenograft mice (body weight, motor and behavior testing)", "format": "in vivo", "conditions": "20 mg/kg daily IP, athymic nude mice", "experimental": "as §4"}, "[11]": {"conditions": "general statement; cited from earlier work"}, "[12]": {"conditions": "general statement; cited from earlier work", "remark": "listed apart in the source"}, "[13]": {"system": "HEK293 cells", "experiment": "GP localization by immunofluorescence after leptomycin", "format": "cell-based", "conditions": "leptomycin B for 3 hours", "text": "FIGS. 11A-E show images illustrating that malin ubiquitination of GPBB drives nuclear localization. (A) Immunoblotting analysis of HSP70, laforin, glycogen debranching enzyme (GDE), branching enzyme (BE), and glycogen phosphorylase (GP) with anti-tubulin (Tub) as the loading control in empty vector (EV) or malin-overexpressing (malin-OE) HEK293 cells. (B) Localization of exogenously expressed malin and GP in HEK293 cells assessed by immunofluorescence. (C) In vitro ubiquitination assay using recombinant E1, E2 (UbcH5a), malin, and myc-GP followed by immunoprecipitation with anti-myc, SDS-PAGE, and immunoblotting analysis with an antibody detecting ubiquitin. (D) Effect of inhibition of nuclear […] with leptomycin on GP localization. HEK293 cells were transfected with GFP-MEK or empty vector for the analysis of endogenous GP. Twenty-four hours post-transfection, cells were exposed to leptomycin B for 3 hours, and protein localization was assessed by immunofluorescence. (E) Schematic model for GP nuclear translocation after malin-mediated ubiquitination. All data are representative of three experiments.\nSince GPBB is a novel malin-interacting protein, malin-dependent regulation of its localization was of interest. GPBB is largely localized to the cytoplasm (FIG. 11B). […]"}, "[14]": {"system": "AMPK", "experiment": "p-AMPK and p-ACC after metformin treatment of ES cells", "format": "cell-based", "experimental": "Whole-cell extracts were generated in RIPA buffer (0.5% deoxycholate, 1% IGEPAL-CA630, 0.1% sodium dodecyl sulfate, 150 mM NaCl, 50 mM Tris-8.1), lysates were cleared by centrifugation and protein concentrations were quantified with the Pierce BCA Protein Assay Kit (Thermo). For western blotting, 25 μg of protein extract per sample was denatured with heat and reducing agents, separated on a 4-12% acrylamide gel (BioRad) and transferred to PVDF (BioRad). Antibodies used for western blotting were: malin (Abcam, 1:1,000), acetyl-H3 (EMDmillipore, 1:1,000), pan-methylation (AbCAM, 1:1,000), myc (Abcam, 1:500), branching enzyme (Lsbio, 1:500), glycogen debranching enzyme (LSBio, 1:1,000), glycogen phosphorylase liver isoform (Cell Signaling Technology 46955 1:2,000), glycogen phosphorylase brain isoform (LSBio, 1:1,000), GAPDH (Abcam 1:1,0000), Histone H3 (Abcam ab1791, 1:20,000), H3K27Ae (Abcam, 1:500), Flag-M2-HRP (Sigma, 1:5000), HSP70 (Abcam, 1:5000) and H3K27me3 (Millipore 07-449; 1:4,000). Each primary antibody was incubated overnight at 4° C. Tubulin (Abcam, 1:20,000) was used as a loading control. All antibodies have detailed species validation available online from vendors. The secondary antibody anti-rabbit IgG, HRP-linked Antibody (Cell Signaling 7074, 1:5,000) or anti-mouse IgG, HRP-linked antibody (Cell Signaling 7076, 1:5,000) was incubated for 1 h at room temperature. After washing, chemiluminescence images were acquired using the ChemiDocMP (BioRad).\nMalin-overexpression cells are more sensitive to the AMPK-activator metformin. Since aberrant ES-glycogen binds to AMPK with high affinity and is inhibitory over p-AMPK activity, malin-OE cells that normalize glycogen architecture should be more sensitive to AMPK activators. Both A673-EV and A673-malin-OE cells were treated with 2 mM metformin and both p-AMPK and p-ACC were assessed."}, "[15]": {"conditions": "2 mM metformin, A673-EV and A673-malin-OE cells"}},
  "note": "“Also recorded” adds a separate entry of the source. Like-named read-outs stand apart in the source and are kept apart here.",
  "data": [
    {"smiles": "OC[C@H]1NC[C@@H](O)[C@@H]1O", "note": "[DAB, 1,4-dideoxy-1,4-imino-D-Arabinitol]", "values": [
      {"measurement": "IC50", "setting": "[1]", "value": "~1500", "unit": "nM"},
      {"measurement": "tumor size / xenograft growth", "setting": "[2]", "value": "failed to continue to proliferate over the course of 15 weeks; also recorded: significantly decreased tumor size as compared to PBS"}
    ]},
    {"smiles": "COc1ccccc1O", "note": "[guaiacol, 2-methoxyphenol]", "values": [
      {"measurement": "IC50", "setting": "[3]; A673, 48 hrs, read-out: IC50 (50% cell viability)", "value": "~20", "unit": "µM"},
      {"measurement": "IC50", "setting": "[3]; A673 cells, FIG. 31B, read-out: IC50", "value": "~20", "unit": "µM"},
      {"measurement": "IC50", "setting": "[4]", "value": "~20", "unit": "µM"},
      {"measurement": "IC50", "setting": "[5]", "value": "~20", "unit": "µM"},
      {"measurement": "reduction in total glycogen", "setting": "[6]", "value": 3, "unit": "fold"},
      {"measurement": "reduction in normalized glycogen levels", "setting": "[7]", "value": 3, "unit": "fold"},
      {"measurement": "sensitivity to metformin induced AMPK activation (p-ACC)", "setting": "[8]", "value": "more sensitive to metformin induced AMPK activation, showing more prominent increase in p-ACC"},
      {"measurement": "reduction in tumor volume at the experiment endpoint", "setting": "[9]", "value": 4, "unit": "fold"},
      {"measurement": "tolerability / adverse side effects", "setting": "[10]", "value": "well tolerated in athymic nude mice without any adverse side effects"},
      {"measurement": "toxicity in vivo", "setting": "[11]", "value": "minimal toxicity in vivo"},
      {"measurement": "bioavailability", "setting": "[12]", "value": "high bioavailability"}
    ]},
    {"smiles": "CCC(=C/[C@H](C)C/C=C/C(C)=C/[C@@H](C)C(=O)[C@@H](C)[C@H](O)[C@@H](C)C/C(C)=C/C(=O)O)/C=C/[C@@H]1OC(=O)C=C[C@@H]1C", "note": "[leptomycin]", "values": [
      {"measurement": "localization of endogenous GP", "setting": "[13]", "value": "accumulation of endogenous GP in the nucleus"}
    ]},
    {"smiles": "CN(C)C(=N)N=C(N)N", "note": "[metformin]", "values": [
      {"measurement": "p-ACC", "setting": "[14]; [15]", "value": "only the malin-OE cell line showed a significant increase in p-ACC"},
      {"measurement": "p-AMPK", "setting": "[14]; [15]", "value": "increased p-AMPK in both EV and malin-OE cell lines"},
      {"measurement": "AMPK activity (p-ACC read out) response to AMPK activator", "setting": "[14]; ES-cells, FIG. 20", "value": "insensitive"}
    ]}
  ]
}
